The results in this text go back to patent publication US20050209278A1, “Piperidinyl- and piperazinyl-sulfonylmethyl hydroxamic acids and their use as protease inhibitors” (priority 2002, published 2005).

The target in the first experiment is T1, MMP-2 (Homo sapiens, UniProt P08253).
T1 construct: made in house; host or cells: MMP-2-transfected p2AHT2 cells
T1 sequence (P08253 110-660): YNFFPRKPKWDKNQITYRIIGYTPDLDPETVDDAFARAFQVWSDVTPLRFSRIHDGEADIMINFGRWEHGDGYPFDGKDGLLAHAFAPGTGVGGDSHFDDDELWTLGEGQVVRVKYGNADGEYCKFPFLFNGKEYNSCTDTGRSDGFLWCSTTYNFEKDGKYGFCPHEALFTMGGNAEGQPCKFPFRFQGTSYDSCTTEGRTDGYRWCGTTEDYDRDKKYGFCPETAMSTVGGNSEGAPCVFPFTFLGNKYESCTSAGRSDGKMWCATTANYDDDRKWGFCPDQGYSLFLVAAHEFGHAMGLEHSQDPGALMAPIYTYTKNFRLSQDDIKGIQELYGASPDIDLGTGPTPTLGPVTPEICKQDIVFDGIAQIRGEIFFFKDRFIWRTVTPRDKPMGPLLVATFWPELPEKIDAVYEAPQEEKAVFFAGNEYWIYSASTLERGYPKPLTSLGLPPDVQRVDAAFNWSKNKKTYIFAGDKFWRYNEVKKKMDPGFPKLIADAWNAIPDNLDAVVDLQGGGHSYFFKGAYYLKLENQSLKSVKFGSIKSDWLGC
Description: In vitro MMP inhibition, Ki determination (fluorogenic substrate II). It counts as biochemical. The conditions noted are these: value not in parenthesis; read-out: MMP-2 Ki.
As usually defined, the Ki is the equilibrium dissociation constant of an inhibitor or competing ligand from its target. In the case of `CCCCOc1ccc(N2CCN(S(=O)(=O)C3(C(=O)NO)CCN(c4ccc(Cl)c(Cl)c4)CC3)CC2)cc1` [Example 250], the Ki was 29.9 nM.

In the case of `CCCCCc1ccc(N2CCN(S(=O)(=O)C3(C(=O)NO)CCN(c4ncccn4)CC3)CC2)nc1` [Example 95], the inhibition constant (Ki) came to 0.64 nM.

On to `O=C(NO)C1(S(=O)(=O)N2CCN(c3ccc(CCC(F)(F)F)cc3)CC2)CCOCC1` [Example 77], for which the inhibition constant Ki came to 0.38 nM.

On to `O=C(NO)C1(S(=O)(=O)N2CCN(c3cccc(C(F)(F)F)c3)CC2)CCOCC1` [Example 82], for which the inhibition constant (Ki) came out at 8.74 nM.

Regarding `CC(C)COc1ccc(N2CCN(S(=O)(=O)C3(C(=O)NO)CCOCC3)CC2)cc1Cl` [Example 79], the Ki is 10.1 nM.

Take `CCCCOc1ccc(N2CCN(S(=O)(=O)C3(C(=O)NO)CCN(C(=O)OCC(C)(C)C)CC3)CC2)cc1` [Example 97]: the Ki is 6.69 nM.

For the compound `CCCCOc1ccc(N2CCN(S(=O)(=O)C3(C(=O)NO)CCN(C(C)(C)C)CC3)CC2)c(F)c1` [Example 84], the Ki came out at 7.53 nM.

`O=C(NO)C1(S(=O)(=O)N2CCN(c3ccc(COCC(F)(F)C(F)F)cc3)CC2)CCOCC1` [Example 71]: the inhibition constant Ki was 2.35 nM.

Still in this experiment, the particulars now being: value outside parentheses; read-out: MMP-2 Ki.
For `CCCCOc1ccc(N2CCN(S(=O)(=O)C3(C(=O)NO)CCN(c4ccccc4)CC3)CC2)cc1` [Example 264], the Ki amounted to 8.23 nM.

As for `COCCN1CCC(C(=O)NO)(S(=O)(=O)N2CCN(c3ccc(Oc4ccccc4)cc3)CC2)CC1` [Example 287], the inhibition constant Ki was 9.44 nM.

For `CCCCOc1ccc(N2CCN(S(=O)(=O)C3(C(=O)NO)CCN(C(=O)CO)CC3)CC2)cc1` [Example 271], the Ki turned out to be 0.668 nM.

Consider `CCCCOc1ccc(N2CCN(S(=O)(=O)C3(C(=O)NO)CCN(C(C)=O)CC3)CC2)cc1` [Example 282], for which the Ki was 0.5 nM.

Regarding `CCCCOc1ccc(N2CCN(S(=O)(=O)C3(C(=O)NO)CCNCC3)CC2)cc1F` [Example 286], the inhibition constant (Ki) was found to be 5.17 nM.

As for `CCCCOc1ccc(N2CCN(S(=O)(=O)C3(C(=O)NO)CCN(Cc4ccccc4)CC3)CC2)cc1F` [Example 285], the Ki was 1.55 nM.

As to `COCCN1CCC(C(=O)NO)(S(=O)(=O)N2CCC(c3ncc(CC(C)C)s3)CC2)CC1` [Example 311], the Ki came to 103 nM.

For the compound `O=C(NO)C1(S(=O)(=O)N2CCC(c3ccc(-c4ccc(F)cc4F)cn3)CC2)CCOCC1` [Example 308], the inhibitory constant (Ki) is 6.36 nM.

For the compound `CCCCOc1ccc(N2CCN(S(=O)(=O)C3(C(=O)NO)CCN(C(=O)CCCC)CC3)CC2)cc1` [Example 278], the Ki stood at 0.81 nM.
